From patent US20210254272A1, “TEXTILES HAVING ANTIMICROBIAL PROPERTIES” (Livinguard AG, priority 2015, published 2021) come the findings set out here.

The nature of the data set: Leaching: 10 grams fabric in 100 milliliters distilled water, 7 days, GC-MS. The format is physicochemical. On the procedure:
To test for a potential leaching of the antimicrobial agents fixed to the textile material, the following test was performed. A test fabric of polyester 65%/cotton 35% with 210 g/m2 was treated with polyhexamethylenebiguanide (PHMB) 0.5%, silver chloride 0.075%, octadecylaminomethyl trihydroxysilylpropyl ammonium chloride (organosilane) 0.4%, and propiconazole 0.5%
The treated textile material was put into distilled water at a ratio of 1:10. Specifically, a fabric of 10 grams was soaked in 100 milliliters of distilled water. The fabric was incubated in the water for 7 days at room temperature, i.e. between 21 and 25° C.
Following said incubation time, the fabric was removed from the water and the exposed water was tested for the presence of the above five active ingredients using gas chromatography-mass spectrometry (GC-MS).

Take `[Cl][Ag]` [Silver chloride]: the “Extracted water Conc, ppm” value is on record as “BDL (BDL-below detection limit Detection limit: 1 parts per million (ppm))”.
